Laboratory results taken from patent US5591773A, “Inhibition of cataract formation, diseases resulting from oxidative stress, and HIV replication by caffeic acid esters” (priority 1994, dated 1997).
Values joined by “and” are separate entries in the source; they are usually repeats but may differ in a detail not shown here. Equal values may be shown once. “Also recorded” adds a separate entry of the source.

Legend:
[1] = test system: TPA-induced cataracts in eyes of rabbits; experiment: TPA-induced cataracts in rabbits in vivo; design: species or system white New Zealand rabbits; settings: for cataract appearance, rabbit No. 5 (in words): conclusion of the experiment; for cataract appearance, other test animals (in words): rabbit, in vivo
Procedure: B) Test animals. Six healthy young (6-8 weeks old) white New Zealand rabbits of both sexes were used for the experiments. Each animal had normal eyes as confirmed by ocular examination by slit lamp.
C) Treatment of animals and monitoring the eye alterations. Cataracts were induced by the direct application of both TPA and CAPE into the eye chamber. On every third day, 0.05 ml of the TPA solution (200 μg/ml PBS) was injected into the anterior chamber of both eyes via a puncture at the corneo-scleral limbus with a fine 0.3×42 mm needle joined to a tuberculin syringe. The animals were all given local anesthesia with HUMACAIN eye drops (human, Godollo, Hungary) under sterile conditions for each application. One hour after TPA was injected, 0.05 ml of the CAPE solution (50 μg/ml) was administered into the anterior chamber of only the left eye, as above. The right eye of each animal received no further treatment. This procedure was repeated a total of 16 times. Periodic ocular examinations by slit lamp were performed after the 6th, 12th, and final drug applications. Subsequently, examinations were made on the 10th and 23rd days after the last drug treatment. After each ocular examination, the physical findings were recorded and photodocumentation of the eye changes were performed. The photographic documentary was executed in the following manner. Firstly, lenses were illuminated by a fiber optic light source from behind and photographs were taken from a distance of 5-6 cm. The diapositive black and white images on paper were transferred into an IBM personal computer (system 2, model 30) using a Sony-2-Cue CCD video camera that was equipped with Fujinon TV zoom objective (1:1.8) via a 17.5-105 signal-transfer system. Finally, with these computer image reconstructions, the areas of the lens opacifications were delineated and quantified using the Olympus image analyzer C-2 morphometry version 2.2 program.

HMdUrd in epidermal DNA = experiment: TPA-induced HMdUrd formation in epidermal DNA of SENCAR mice; assay type: in vivo
Procedure: FIGS. 2A-2D. CAPE-mediated inhibition of TPA-induced oxidative processes in SENCAR mice. Mice were topically treated with 6.5 nmol CAPE 30 min prior to 6.5 nmol TPA, and this regimen was repeated 20 h later. Mice were sacrificed 1 h after the last treatment and the skin removed for determination of: (FIG. 2A) PMN infiltration (by measuring myeloperoxidase (MPO)); (FIG. 2B) H2 O2; (FIG. 2C) HMdUrd (HMdU); and (FIG. 2D) 8-OHdGua (8-OHdG), according to procedures described in the "Experimental Details" Section, infra. .quadrature., controls treated with acetone in place of CAPE and TPA; , treatment with acetone followed by TPA; .box-solid., treatment with CAPE followed by TPA. Results are expressed as mean ± SE (bars) from two experiments (2 mice/experiment) in the CAPE series. Data for acetone (ACT)- and TPA-treated mean values were collected from over 20 experiments.
C) MPO, H2 O2, and Oxidized DNA Bases. SENCAR mice were pretreated with CAPE for 30 min; then 6.5 nmol (4 μg) TPA/mouse topically applied to the dorsal skin. After 20 h, the CAPE and TPA treatment (1x) was repeated (2x treatment). One h after the second treatment, the mice were sacrificed by cervical dislocation, and 12.5-mm punches were obtained to be used separately for MPO and H2 O2 determinations. The remainder of the treated mouse skin or the combined skins from two mice were used for separation of epidermal cells. This was done by heating the skin at 55° C. for 30 s followed by rapid immersion into an ice-cold water bath (45). After the epidermis was scraped off, the presence of oxidized DNA base derivatives was measured in the epidermal DNA. All of these end points were analyzed by published procedures and are briefly described below.
The epidermis was homogenized and lysed, and the proteins and RNA were removed by proteinase K and RNase digestions, respectively (20). The DNA was separated and purified on A.S.A.P. columns (Boehringer-Mannheim Biochemicals) and precipitated with isopropyl alcohol.
The pellet was then washed with 70% ethyl alcohol, dried, and dissolved in 10 mM Tris.cndot.HCl-100 mM NaCl buffer, pH 7.0, according to the manufacturer's procedure. The DNA was sheared and enzymatically digested to nucleosides, and the hydrolysates were separated by HPLC (Beckman, Model 344) on an ODS column (Altex, 1×25 cm; 5 μm particle size) (50). The fractions that eluted after 30 ml were combined (excluding those containing normal nucleosides) and dried. The oxidized nucleosides were detected by ^3 H-postlabeling with [^3 H]acetic anhydride, followed by HPLC analysis of ^3 H-containing acetates in the presence of marker acetates (50). The results are presented as the number of oxidized nucleosides/10^4 normal bases, unless otherwise stated.
^a Mice were treated as described in the legend to FIG. 2, except tha

bovine lens (H2O2) = experiment: H2O2 formation in bovine lens; assay type: cell-based; settings: for H2O2 / increase in H2O2 concentration over control lenses: 24 h; for H2O2: mean of 3 ± SE
Procedure: B) Bovine Lens Bovine lenses were obtained from a New Jersey slaughterhouse 3 h after the animals were sacrificed. Lenses were immediately immersed in artificial aqueous humor (AAH; 130 mMNaCl, 5 mMKCl, 1 mM CaCl2, 0.5 mM MgCl2, 10 mM NaHCO3, 10 mM 4-(2-hydroxyethyl)-1-piperazineethanesulfonic acid (pH 7.3), and 2.5 mM D-glucose). Each of the bovine lenses in AAH (about 15 ml/lens) supplemented with 10 mM azide (a catalase inhibitor) was incubated with various amounts (0-1 μM) TPA at 37° C. for 24 h in the presence or absence of CAPE (1 μM), as described for use of other chemopreventive agents (31). For comparison, the lenses were also incubated with glucose (2.5 mM)/glucose oxidase (25 μM), a H2 O2 -generating system.
After incubation, lenses were homogenized in 15 ml of azide-supplemented AAH in a Waring Blender, and H2 O2 content was determined spectrofluorometrically, as described previously (55). Briefly, the homogenates were incubated with 2',7'-dichlorofluorescin diacetate, which is deacetylated by the esterase present in the homogenate. In the presence of HRPO, the nonfluorescent substrate was oxidized by H2 O2 generated in the lens to a highly fluorescent product, which was measured at excitation 475 nm and emission 525 nm (30, 31, 55). The amount of H2 O2 generated was determined from a standard curve, which was constructed by addition of increasing concentrations of H2 O2 to a homogenate derived from a control lens incubated only in AAH.

[2] = test system: TPA-induced cataracts in eyes of rabbits; experiment: TPA-induced cataracts in rabbits in vivo; design: species or system white New Zealand rabbits; settings: daily TPA-containing drops, 6 week period
[3] = CAPE 6.5 nmol, TPA 6.5 nmol, 2x

O=C(/C=C/c1ccc(O)c(O)c1)OCCc1ccccc1 [CAPE, Caffeic acid phenethyl ester]
area of TPA-induced cataracts larger in eye without CAPE than in CAPE-injected eye ([1]; 5 of 6 animals): 2.2-44.2 times | Size of cataract, CAPE (TPA + CAPE treated left eye) ([1]; CAPE 0.05 ml of 50 μg/ml 1 h after TPA, 16 times, one line per animal): 1.428 relative units and 6.739 relative units and 10.77 relative units and 28.722 relative units and 30.199 relative units and 43.184 relative units | cataract appearance, rabbit No. 5 (in words) [1]: a small capsular-subcapsular immature cataract is evident | Size of cataract, % of Control ([1]; left (TPA + CAPE) vs right (TPA) eye of the same animal, one line per animal): 2.25% and 45.83% and 10.26% and 25.73% and 30.22% and 151.11% | lens appearance, effect of CAPE (in words) ([1]; left eye, intracameral CAPE after TPA): significantly clearer; also recorded: produced a prophylactic effect on incipient cataracts; also recorded: significantly reduced the pathological effects of this phorbol ester | cataract appearance, other test animals (in words) [1]: generally smaller and more immature | animals with smaller cataract in CAPE-treated eye ([1]; rabbits, termination of the experiment): 5 out of the 6 | HMdUrd/10^4 bases (HMdUrd in epidermal DNA; CAPE 6.5 nmol then TPA 6.5 nmol, 2x, (2 experiments), SE 0.6 on next line): 13.1 /10^4 bases | HMdUrd levels (in words) (HMdUrd in epidermal DNA; [3]): below the acetone/acetone controls | decline of HMdUrd formation (HMdUrd in epidermal DNA; [3]): 115% | HMdUrd/10^4 bases (HMdUrd in epidermal DNA; CAPE 650 nmol then TPA 6.5 nmol, 2x, (2 experiments), SE 10.5 on next line): 30.5 /10^4 bases | H2O2 (bovine lens (H2O2); 1 μM CAPE 30 min then 0.1 μM TPA): 13.1 ± 1.3 µM | H2O2, % of change from control (bovine lens (H2O2); 1 μM CAPE/0.1 μM TPA): 110% | inhibition at 1 µM (bovine lens (H2O2); Bos taurus, 1 μM CAPE 30 min, then 0.1 μM TPA 24 h, read-out: decline in TPA-induced H2O2 production): ~95%

CCCCCCCCCCCCCC(=O)O[C@@H]1[C@@H](C)[C@@]2(O)[C@@H](C=C(CO)C[C@]3(O)C(=O)C(C)=C[C@@H]23)[C@@H]2C(C)(C)[C@]12OC(C)=O [TPA, 12-O-tetradecanoylphorbol-13-acetate]
Size of cataract, Control (TPA-treated right eye) ([1]; TPA 0.05 ml of 200 μg/ml into anterior chamber every third day, 16 times, one line per animal): 63.139 relative units and 14.704 relative units and 104.97 relative units and 111.62 relative units and 99.923 relative units and 28.578 relative units | induction of cataracts in live rabbits (in words) ([1]; TPA injected into anterior chamber): Cataracts of various sizes and types were evident by ocular examination in both eyes starting after the 12th TPA injection; also recorded: potent inducer of cataracts in the eyes of live rabbits | cataract appearance, rabbit No. 5 (in words) [1]: a rather large arched subcortical condensed immature but developing cataract is evident | cataract appearance, other test animals (in words) [1]: larger, more mature cataracts that had spread deeply into the nuclear region | HMdUrd/10^4 bases (HMdUrd in epidermal DNA; TPA alone, 6.5 nmol, SE 6.4 on next line): 39.4 /10^4 bases | alteration in lens transparency (in words) [2]: failed to induce any visible alteration in the transparency of the lenses | H2O2, % of change from control (bovine lens (H2O2); 0.01 μM TPA): 95% | H2O2 (bovine lens (H2O2); 0.01 μM TPA): 11.3 ± 0.2 µM | H2O2, % of change from control (bovine lens (H2O2); 0.05 μM TPA): 200% | increase in H2O2 concentration over control lenses (bovine lens (H2O2); 0.05 μM TPA): about 2 fold | H2O2 (bovine lens (H2O2); 0.05 μM TPA): 23.3 ± 1.3 µM | H2O2, % of change from control (bovine lens (H2O2); 0.10 μM TPA): 360% | increase in H2O2 concentration over control lenses (bovine lens (H2O2); 0.1 μM TPA): ~3.5 fold | H2O2 (bovine lens (H2O2); 0.10 μM TPA): 42.7 ± 1.6 µM | H2O2, % of change from control (bovine lens (H2O2); 1.0 μM TPA): 705% | increase in H2O2 concentration over control lenses (bovine lens (H2O2); 1.0 μM TPA): ~7 fold | H2O2 (bovine lens (H2O2); 1.0 μM TPA): 83.8 ± 5.6 µM
